# Patent US10844077B2, “Thiazolyl-containing compounds for treating proliferative diseases” (Dana-Farber Cancer Institute, Inc., priority 2014, dated 2020)
# Read-outs that look alike come from different tables or passages of the source.
# Experiments:
# Assay type in all cases: binding
# broad panel of kinases [1] = molecular target: broad panel of kinases (Homo sapiens, UniProt O00444); details: PLK4; 1 μM
# broad panel of kinases [2] = molecular target: broad panel of kinases (Homo sapiens, UniProt O43318); details: TAK1; 1 μM
# broad panel of kinases [3] = molecular target: broad panel of kinases (Homo sapiens, UniProt P00533, G719C); details: EGFR(G719C); 1 μM
# broad panel of kinases [4] = molecular target: broad panel of kinases (Homo sapiens, UniProt P00533, L861Q); details: EGFR(L861Q); 1 μM
# broad panel of kinases [5] = molecular target: broad panel of kinases (Homo sapiens, UniProt P06239); details: LCK; 1 μM
# broad panel of kinases [6] = molecular target: broad panel of kinases (Homo sapiens, UniProt P07332); details: FES; 1 μM
# broad panel of kinases [7] = molecular target: broad panel of kinases (Homo sapiens, UniProt P07949); details: RET; 1 μM
# broad panel of kinases [8] = molecular target: broad panel of kinases (Homo sapiens, UniProt P07949, M918T); details: RET(M918T); 1 μM
# broad panel of kinases [9] = molecular target: broad panel of kinases (Homo sapiens, UniProt P08581); details: MET; 1 μM
# broad panel of kinases [10] = molecular target: broad panel of kinases (Homo sapiens, UniProt P17948); details: FLT1; 1 μM
# broad panel of kinases [11] = molecular target: broad panel of kinases (Homo sapiens, UniProt P23458); details: 1 μM
# broad panel of kinases [12] = molecular target: broad panel of kinases (Homo sapiens, UniProt P24723); details: PRKCH; 1 μM
# broad panel of kinases [13] = molecular target: broad panel of kinases (Homo sapiens, UniProt P29323); details: EPHB2; 1 μM
# broad panel of kinases [14] = molecular target: broad panel of kinases (Homo sapiens, UniProt P31751); details: AKT2; 1 μM
# broad panel of kinases [15] = molecular target: broad panel of kinases (Homo sapiens, UniProt P36896); details: ACVR1B; 1 μM
# broad panel of kinases [16] = molecular target: broad panel of kinases (Homo sapiens, UniProt P42336, C420R); details: PIK3CA(C420R); 1 μM
# broad panel of kinases [17] = molecular target: broad panel of kinases (Homo sapiens, UniProt P42336, E545K); details: PIK3CA(E545K); 1 μM
# broad panel of kinases [18] = molecular target: broad panel of kinases (Homo sapiens, UniProt P42336, Q546K); details: PIK3CA(Q546K); 1 μM
# broad panel of kinases [19] = molecular target: broad panel of kinases (Homo sapiens, UniProt P42338); details: PIK3CB; 1 μM
# broad panel of kinases [20] = molecular target: broad panel of kinases (Homo sapiens, UniProt P78356); details: PIP5K2B; 1 μM
# broad panel of kinases [21] = molecular target: broad panel of kinases (Homo sapiens, UniProt Q00532); details: CDKL1; 1 μM
# broad panel of kinases [22] = molecular target: broad panel of kinases (Homo sapiens, UniProt Q12866); details: MERTK; 1 μM
# broad panel of kinases [23] = molecular target: broad panel of kinases (Homo sapiens, UniProt Q15569); details: TESK1; 1 μM
# broad panel of kinases [24] = molecular target: broad panel of kinases (Homo sapiens, UniProt Q15759); details: p38-beta; 1 μM
# broad panel of kinases [25] = molecular target: broad panel of kinases (Homo sapiens, UniProt Q16584); details: MLK3; 1 μM
# broad panel of kinases [26] = molecular target: broad panel of kinases (Homo sapiens, UniProt Q8N752); details: CSNK1A1L; 1 μM
# broad panel of kinases [27] = molecular target: broad panel of kinases (Homo sapiens, UniProt Q8NE63); details: HIPK4; 1 μM
# broad panel of kinases [28] = molecular target: broad panel of kinases (Homo sapiens, UniProt Q8TDX7); details: NEK7; 1 μM
# broad panel of kinases [29] = molecular target: broad panel of kinases (Homo sapiens, UniProt Q8WTQ7); details: GRK7; 1 μM
# broad panel of kinases [30] = molecular target: broad panel of kinases (Homo sapiens, UniProt Q96D53); details: ADCK4; 1 μM
# broad panel of kinases [31] = molecular target: broad panel of kinases (Homo sapiens, UniProt Q9C098); details: DCAMKL3; 1 μM
# broad panel of kinases [32] = molecular target: broad panel of kinases (Homo sapiens, UniProt Q9H422); details: HIPK3; 1 μM
# broad panel of kinases [33] = molecular target: broad panel of kinases (Homo sapiens, UniProt Q9NYY3); details: PLK2; 1 μM
# broad panel of kinases [34] = molecular target: broad panel of kinases (Homo sapiens, UniProt Q9UKI8); details: TLK1; 1 μM
# broad panel of kinases [35] = molecular target: broad panel of kinases (Homo sapiens, UniProt Q9UQ88); details: CDC2L2; 1 μM
# broad panel of kinases [36] = molecular target: broad panel of kinases (Homo sapiens, UniProt Q9UQB9); details: AURKC; 1 μM
# broad panel of kinases [37] = molecular target: broad panel of kinases (Homo sapiens, UniProt Q9Y6M4); details: CSNK1G3; 1 μM
# Sequence of broad panel of kinases (Homo sapiens, UniProt P07949) (P07949 29-1114 limits assumed): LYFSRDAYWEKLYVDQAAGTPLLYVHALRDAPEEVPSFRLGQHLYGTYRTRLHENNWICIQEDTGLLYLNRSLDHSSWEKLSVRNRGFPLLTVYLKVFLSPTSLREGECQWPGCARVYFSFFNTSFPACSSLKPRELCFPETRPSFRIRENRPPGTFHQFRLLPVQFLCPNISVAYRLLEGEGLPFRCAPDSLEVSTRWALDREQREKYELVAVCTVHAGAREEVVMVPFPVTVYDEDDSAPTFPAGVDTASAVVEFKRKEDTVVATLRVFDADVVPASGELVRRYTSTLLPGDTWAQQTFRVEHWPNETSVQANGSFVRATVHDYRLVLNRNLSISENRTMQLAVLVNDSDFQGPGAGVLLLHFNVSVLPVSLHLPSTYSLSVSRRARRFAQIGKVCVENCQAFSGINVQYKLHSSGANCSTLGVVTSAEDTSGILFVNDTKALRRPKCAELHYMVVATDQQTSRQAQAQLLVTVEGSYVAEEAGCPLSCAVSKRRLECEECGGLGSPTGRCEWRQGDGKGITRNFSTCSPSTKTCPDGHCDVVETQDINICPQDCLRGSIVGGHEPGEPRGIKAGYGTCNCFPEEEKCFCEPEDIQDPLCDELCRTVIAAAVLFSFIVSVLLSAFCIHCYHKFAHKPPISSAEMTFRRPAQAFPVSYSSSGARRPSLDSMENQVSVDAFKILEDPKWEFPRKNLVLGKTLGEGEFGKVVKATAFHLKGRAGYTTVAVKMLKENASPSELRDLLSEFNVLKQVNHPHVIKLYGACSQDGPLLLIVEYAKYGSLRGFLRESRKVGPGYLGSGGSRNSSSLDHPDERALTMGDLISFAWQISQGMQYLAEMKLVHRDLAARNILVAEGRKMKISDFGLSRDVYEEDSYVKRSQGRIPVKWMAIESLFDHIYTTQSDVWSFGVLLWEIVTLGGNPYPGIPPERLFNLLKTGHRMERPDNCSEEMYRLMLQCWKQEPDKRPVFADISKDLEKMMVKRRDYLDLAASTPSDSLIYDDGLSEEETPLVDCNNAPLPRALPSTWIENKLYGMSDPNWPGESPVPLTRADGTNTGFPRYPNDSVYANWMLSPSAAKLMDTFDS
# Sequence of broad panel of kinases (Homo sapiens, UniProt Q12866) (Q12866 21-999 limits assumed): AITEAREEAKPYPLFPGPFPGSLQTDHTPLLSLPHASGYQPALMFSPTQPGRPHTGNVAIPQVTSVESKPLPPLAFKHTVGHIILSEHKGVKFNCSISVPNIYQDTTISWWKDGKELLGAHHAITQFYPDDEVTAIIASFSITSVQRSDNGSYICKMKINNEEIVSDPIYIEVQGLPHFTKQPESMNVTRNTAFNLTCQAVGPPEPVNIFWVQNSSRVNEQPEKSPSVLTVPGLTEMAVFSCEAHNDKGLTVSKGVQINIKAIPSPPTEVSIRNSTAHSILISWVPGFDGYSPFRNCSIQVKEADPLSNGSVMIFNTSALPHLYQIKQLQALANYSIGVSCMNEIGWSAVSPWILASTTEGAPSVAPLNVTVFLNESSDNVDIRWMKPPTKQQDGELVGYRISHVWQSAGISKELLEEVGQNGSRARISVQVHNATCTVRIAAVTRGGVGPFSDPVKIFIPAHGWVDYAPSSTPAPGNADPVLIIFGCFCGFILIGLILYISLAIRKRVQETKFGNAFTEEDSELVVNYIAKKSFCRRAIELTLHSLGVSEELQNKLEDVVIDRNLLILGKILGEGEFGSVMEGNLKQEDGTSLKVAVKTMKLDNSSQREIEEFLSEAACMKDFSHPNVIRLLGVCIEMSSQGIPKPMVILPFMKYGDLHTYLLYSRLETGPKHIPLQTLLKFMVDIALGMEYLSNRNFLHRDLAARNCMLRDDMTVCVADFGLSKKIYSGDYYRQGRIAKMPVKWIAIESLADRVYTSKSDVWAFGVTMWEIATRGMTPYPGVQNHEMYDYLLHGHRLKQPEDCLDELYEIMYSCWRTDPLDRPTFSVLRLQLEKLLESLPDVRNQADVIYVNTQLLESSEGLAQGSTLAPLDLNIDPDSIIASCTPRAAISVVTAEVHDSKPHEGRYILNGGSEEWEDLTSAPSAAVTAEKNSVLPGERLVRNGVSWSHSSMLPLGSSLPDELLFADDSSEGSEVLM
# Sequence of broad panel of kinases (Homo sapiens, UniProt P36896) (P36896 24-505 limits assumed): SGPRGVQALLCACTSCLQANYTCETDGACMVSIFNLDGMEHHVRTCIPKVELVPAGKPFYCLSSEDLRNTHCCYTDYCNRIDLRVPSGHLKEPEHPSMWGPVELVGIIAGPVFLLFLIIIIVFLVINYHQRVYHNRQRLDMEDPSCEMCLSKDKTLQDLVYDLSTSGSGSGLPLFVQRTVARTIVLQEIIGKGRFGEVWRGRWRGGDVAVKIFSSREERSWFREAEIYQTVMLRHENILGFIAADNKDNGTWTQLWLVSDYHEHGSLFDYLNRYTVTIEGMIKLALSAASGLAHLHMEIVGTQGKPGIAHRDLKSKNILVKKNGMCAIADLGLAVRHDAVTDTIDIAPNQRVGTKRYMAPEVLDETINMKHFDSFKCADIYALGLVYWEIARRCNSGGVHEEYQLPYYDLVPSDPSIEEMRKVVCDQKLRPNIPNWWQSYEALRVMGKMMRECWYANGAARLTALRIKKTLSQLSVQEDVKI
# Sequence of broad panel of kinases (Homo sapiens, UniProt P78356) (P78356 2-416 limits assumed): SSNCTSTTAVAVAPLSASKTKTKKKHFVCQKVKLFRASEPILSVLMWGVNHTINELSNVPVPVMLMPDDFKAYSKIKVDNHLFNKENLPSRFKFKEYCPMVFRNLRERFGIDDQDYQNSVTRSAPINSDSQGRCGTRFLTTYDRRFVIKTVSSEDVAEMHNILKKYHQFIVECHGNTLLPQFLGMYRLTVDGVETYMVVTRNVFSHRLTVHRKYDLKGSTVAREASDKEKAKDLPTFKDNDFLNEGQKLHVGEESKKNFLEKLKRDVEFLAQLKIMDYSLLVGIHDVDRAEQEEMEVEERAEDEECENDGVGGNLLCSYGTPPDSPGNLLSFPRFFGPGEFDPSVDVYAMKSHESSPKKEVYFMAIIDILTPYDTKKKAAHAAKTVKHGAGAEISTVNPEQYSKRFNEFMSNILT
# Sequence of broad panel of kinases (Homo sapiens, UniProt P17948) (P17948 27-1338 limits assumed): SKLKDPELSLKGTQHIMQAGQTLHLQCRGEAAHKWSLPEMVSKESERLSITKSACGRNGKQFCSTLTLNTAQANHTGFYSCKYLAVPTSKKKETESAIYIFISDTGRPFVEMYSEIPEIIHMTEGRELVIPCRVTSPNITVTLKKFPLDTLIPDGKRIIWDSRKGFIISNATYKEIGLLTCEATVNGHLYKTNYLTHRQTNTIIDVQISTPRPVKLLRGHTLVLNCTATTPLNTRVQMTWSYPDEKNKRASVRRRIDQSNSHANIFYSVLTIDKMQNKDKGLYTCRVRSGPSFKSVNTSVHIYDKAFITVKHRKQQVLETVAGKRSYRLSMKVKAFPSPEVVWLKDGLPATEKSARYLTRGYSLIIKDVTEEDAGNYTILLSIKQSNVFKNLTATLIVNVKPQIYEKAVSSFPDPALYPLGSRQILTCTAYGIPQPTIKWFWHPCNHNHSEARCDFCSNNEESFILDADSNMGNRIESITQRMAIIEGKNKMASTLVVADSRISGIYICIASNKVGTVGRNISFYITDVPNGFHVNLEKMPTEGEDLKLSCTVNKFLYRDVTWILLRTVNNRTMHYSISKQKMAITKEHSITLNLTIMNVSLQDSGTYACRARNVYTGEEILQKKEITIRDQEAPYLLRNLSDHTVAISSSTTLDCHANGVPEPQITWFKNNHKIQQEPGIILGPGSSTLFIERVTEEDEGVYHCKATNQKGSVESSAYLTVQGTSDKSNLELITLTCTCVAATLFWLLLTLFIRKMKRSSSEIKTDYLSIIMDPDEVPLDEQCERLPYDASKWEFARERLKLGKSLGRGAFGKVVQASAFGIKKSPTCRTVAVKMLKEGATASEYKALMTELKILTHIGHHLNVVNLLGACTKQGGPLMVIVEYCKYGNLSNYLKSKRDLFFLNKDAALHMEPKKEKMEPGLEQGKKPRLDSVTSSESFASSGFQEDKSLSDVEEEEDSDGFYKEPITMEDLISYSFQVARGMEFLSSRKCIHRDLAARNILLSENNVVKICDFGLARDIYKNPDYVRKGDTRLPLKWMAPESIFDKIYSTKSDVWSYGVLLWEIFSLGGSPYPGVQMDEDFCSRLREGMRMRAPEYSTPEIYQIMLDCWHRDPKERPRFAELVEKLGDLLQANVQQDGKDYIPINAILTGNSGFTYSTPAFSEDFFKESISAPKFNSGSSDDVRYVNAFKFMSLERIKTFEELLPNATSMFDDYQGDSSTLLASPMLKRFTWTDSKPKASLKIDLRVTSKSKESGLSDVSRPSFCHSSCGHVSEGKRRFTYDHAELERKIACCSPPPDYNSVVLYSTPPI
# Sequence of broad panel of kinases (Homo sapiens, UniProt P06239) (P06239 2-509 limits assumed): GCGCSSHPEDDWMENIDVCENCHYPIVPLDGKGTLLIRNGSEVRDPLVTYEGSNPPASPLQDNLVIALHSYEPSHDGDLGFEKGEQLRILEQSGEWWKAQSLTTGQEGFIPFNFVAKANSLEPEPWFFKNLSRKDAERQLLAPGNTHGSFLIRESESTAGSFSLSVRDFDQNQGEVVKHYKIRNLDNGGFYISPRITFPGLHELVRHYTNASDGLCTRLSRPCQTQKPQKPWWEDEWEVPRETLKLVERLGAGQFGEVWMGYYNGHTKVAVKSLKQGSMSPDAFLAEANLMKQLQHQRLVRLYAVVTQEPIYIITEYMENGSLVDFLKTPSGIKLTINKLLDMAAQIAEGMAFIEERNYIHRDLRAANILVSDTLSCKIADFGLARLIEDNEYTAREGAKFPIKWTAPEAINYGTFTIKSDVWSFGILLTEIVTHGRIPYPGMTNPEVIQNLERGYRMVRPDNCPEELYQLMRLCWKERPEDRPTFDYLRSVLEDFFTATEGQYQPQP
# Sequence of broad panel of kinases (Homo sapiens, UniProt P07949, M918T) (P07949 29-1114 M918T limits assumed): as the sequence (P07949 29-1114 limits assumed) above, with M890T counted along it
Compound,percent of control binding remaining (lower = stronger binding) (broad panel of kinases [1]) [%],percent of control binding remaining (lower = stronger binding) (broad panel of kinases [2]) [%],percent of control binding remaining (lower = stronger binding) (broad panel of kinases [3]) [%],percent of control binding remaining (lower = stronger binding) (broad panel of kinases [4]) [%],percent of control binding remaining (lower = stronger binding) (broad panel of kinases [6]) [%],percent of control binding remaining (lower = stronger binding) (broad panel of kinases [7]) [%],percent of control binding remaining (lower = stronger binding) (broad panel of kinases [8]) [%],percent of control binding remaining (lower = stronger binding) (broad panel of kinases [9]) [%],percent of control binding remaining (lower = stronger binding) (broad panel of kinases [10]) [%],percent of control binding remaining (lower = stronger binding) (broad panel of kinases [11]; JAK1(JH1domain-catalytic)) [%],percent of control binding remaining (lower = stronger binding) (broad panel of kinases [11]; JAK1(JH2domain-pseudokinase)) [%],percent of control binding remaining (lower = stronger binding) (broad panel of kinases [12]) [%],percent of control binding remaining (lower = stronger binding) (broad panel of kinases [13]) [%],percent of control binding remaining (lower = stronger binding) (broad panel of kinases [14]) [%],percent of control binding remaining (lower = stronger binding) (broad panel of kinases [15]) [%],percent of control binding remaining (lower = stronger binding) (broad panel of kinases [16]) [%],percent of control binding remaining (lower = stronger binding) (broad panel of kinases [17]) [%],percent of control binding remaining (lower = stronger binding) (broad panel of kinases [18]) [%],percent of control binding remaining (lower = stronger binding) (broad panel of kinases [19]) [%],percent of control binding remaining (lower = stronger binding) (broad panel of kinases [20]) [%],other results
C=CC(=O)N1CC[C@H](Nc2nc(CN3CCOCC3)cc(Nc3ncc(C(=O)Nc4c(C)cccc4C)s3)n2)C1 [Example I-2],73,95,23,1.3,98,100,92,97,93,100,100,97,0,88,68,100,94,83,100,98,percent of control binding remaining (lower = stronger binding) (broad panel of kinases [5]): 0.65%; percent of control binding remaining (lower = stronger binding) (broad panel of kinases [21]): 100%; percent of control binding remaining (lower = stronger binding) (broad panel of kinases [22]): 90%; percent of control binding remaining (lower = stronger binding) (broad panel of kinases [23]): 60%; percent of control binding remaining (lower = stronger binding) (broad panel of kinases [24]): 62%; percent of control binding remaining (lower = stronger binding) (broad panel of kinases [25]): 100%; percent of control binding remaining (lower = stronger binding) (broad panel of kinases [26]): 100%; percent of control binding remaining (lower = stronger binding) (broad panel of kinases [27]): 100%; percent of control binding remaining (lower = stronger binding) (broad panel of kinases [28]): 100%; percent of control binding remaining (lower = stronger binding) (broad panel of kinases [29]): 97%; percent of control binding remaining (lower = stronger binding) (broad panel of kinases [30]): 95%; percent of control binding remaining (lower = stronger binding) (broad panel of kinases [31]): 97%; percent of control binding remaining (lower = stronger binding) (broad panel of kinases [32]): 95%; percent of control binding remaining (lower = stronger binding) (broad panel of kinases [33]): 92%; percent of control binding remaining (lower = stronger binding) (broad panel of kinases [34]): 100%; percent of control binding remaining (lower = stronger binding) (broad panel of kinases [35]): 92%; percent of control binding remaining (lower = stronger binding) (broad panel of kinases [36]): 90%; percent of control binding remaining (lower = stronger binding) (broad panel of kinases [37]): 96%
C=CC(=O)N1CC[C@H](Nc2nccc(Nc3ncc(C(=O)Nc4c(C)cccc4C)s3)n2)C1 [Example I-3],82,90,14,0.8,93,86,99,94,86,100,100,88,0,100,100,99,100,100,100,100,% change compared to control (broad panel of kinases [5]): 0.55%; percent of control binding remaining (lower = stronger binding) (broad panel of kinases [21]): 93%; percent of control binding remaining (lower = stronger binding) (broad panel of kinases [22]): 100%; percent of control binding remaining (lower = stronger binding) (broad panel of kinases [23]): 88%; percent of control binding remaining (lower = stronger binding) (broad panel of kinases [24]): 63%; percent of control binding remaining (lower = stronger binding) (broad panel of kinases [25]): 85%; percent of control binding remaining (lower = stronger binding) (broad panel of kinases [26]): 95%; percent of control binding remaining (lower = stronger binding) (broad panel of kinases [27]): 97%; percent of control binding remaining (lower = stronger binding) (broad panel of kinases [28]): 98%; percent of control binding remaining (lower = stronger binding) (broad panel of kinases [29]): 96%; percent of control binding remaining (lower = stronger binding) (broad panel of kinases [30]): 92%; percent of control binding remaining (lower = stronger binding) (broad panel of kinases [31]): 92%; percent of control binding remaining (lower = stronger binding) (broad panel of kinases [32]): 100%; percent of control binding remaining (lower = stronger binding) (broad panel of kinases [33]): 76%; percent of control binding remaining (lower = stronger binding) (broad panel of kinases [34]): 100%; percent of control binding remaining (lower = stronger binding) (broad panel of kinases [35]): 93%; percent of control binding remaining (lower = stronger binding) (broad panel of kinases [36]): 71%; percent of control binding remaining (lower = stronger binding) (broad panel of kinases [37]): 95%
